# Test results published in publication PMC5315023 (Nature, 2016).
# Tested on: MEFs expressing Mfn1 or Mfn2 in any combination
# Assay: Mitochondrial aspect ratio/morphology with adenovirally expressed minipeptides
# Format: cell-based, mouse
# Details: adenoviral expression, MOI of 100, MEFs
sequence,measurement,value
RQVSTAMAEEIRRLSVLVDDY [Adeno428-448],Effect on mitochondrial fusion / morphology,did not affect mitochondrial fusion
